# Measured values as given in patent US8309554B2 (priority 2008, dated 2012).
# Values joined by “and” are separate entries in the source; they are usually repeats but may differ in a detail not shown here. Equal values may be shown once. Read-outs that look alike come from different tables or passages of the source.
# Tests used:
# H460 = assay: cells; format: cell-based; details: for IC50: Homo sapiens
# H460 spheroid = assay: cells; format: cell-based; details: Homo sapiens
# HT29 = assay: cells; format: cell-based; details: for IC50: Homo sapiens, HT-29, 2 h
# [1] = test system: H460 non small cell lung xenograft; details: mouse, in vivo
# in vivo = details: mouse, ip
# [2] = test system: HT 1080 sarcoma xenograft; details: mouse, in vivo
# [3] = NCI-H460, read-out: 2 h Air H460 monolayer IC50
# [4] = NCI-H460, read-out: 2 h N2 H460 monolayer IC50
# [5] = NCI-H460, read-out: 2 h Air H460 spheroid IC50
# [6] = NCI-H460, read-out: 2 h N2 H460 spheroid IC50
# [7] = NCI-H460, 2 h, read-out: 2 hr Air H460 IC50
# [8] = NCI-H460, 2 h, read-out: 2 hr N2 H460 IC50
Structure (SMILES),IC50 (H460; [3]),IC50 (H460; [4]),IC50 (H460 spheroid; [5]),IC50 (H460 spheroid; [6]),H460 HCR: Air/N2 (H460),IC50 (H460; [7]),IC50 (H460; [8]),HT29 HCR: Air/N2 (HT29),IC50 (HT29; read-out: 2 hr Air HT29 IC50),IC50 (HT29; read-out: 2 hr N2 HT29 IC50),tumor growth delay to 500 mm^3 [1],MTD (in vivo),"tumor growth delay to 500 mm^3 ([2]; ip, 50 mg/kg)",tumor growth delay to 500 mm^3 [2]
CN(c1ccc(N(CCCl)CCCl)cc1)S(=O)(=O)Cn1ccnc1[N+](=O)[O-] [TH-1107],113 µM,7.9 µM,< 0.69 µM,< 0.69 µM,,,,,,,,,,
Cc1cc(OS(=O)(=O)C(C)c2ccsc2[N+](=O)[O-])ccc1N(CCCl)CCCl (stereo not drawn) [TH-1120],2.4 µM,0.3 µM,< 0.08 µM,< 0.08 µM,,,,,,,,,,
CN(c1ccc(N(CCCl)CCCl)cc1)S(=O)(=O)C(C)(C)c1cnc([N+](=O)[O-])n1C [TH-1126],45 µM,7.1 µM,< 0.69 µM,< 0.69 µM,,,,,,,,,,
CC(n1ccnc1[N+](=O)[O-])S(=O)(=O)N(C)c1ccc(N(CCCl)CCCl)cc1 (stereo not drawn) [TH-1127],37 µM,3.9 µM,< 0.69 µM,< 0.69 µM,,,,,,,,,,
"CS(=O)(=O)CCC(c1ccsc1[N+](=O)[O-])S(=O)(=O)Oc1ccc(N(CCCl)CCCl)cc1 (stereo not drawn) [TH-1266, 3-(4-(N,N-bis-(2-Chloroethyl)amino)phenoxysulfonyl-(2-methylsulfonyl)ethyl)methyl-2-nitrothiophene]",,,,,183,55 µM,0.3 µM,>29,> 1000 µM,34 µM,25 days and 21 days,40 mg/kg,,
"O=[N+]([O-])c1sccc1C(Cc1ccc(O)nc1)S(=O)(=O)Oc1ccc(N(CCCl)CCCl)cc1 (stereo not drawn) [TH-1305, 3-(4-(N,N-bis-(2-Chloroethyl)amino)phenoxysulfonyl-(2-hydroxypyridin-5-yl-methyl))methyl-2-nitrothiophene]",,,,,67,47 µM,0.7 µM,>44,> 300 µM,6.8 µM,10 days,20 mg/kg,,
"O=[N+]([O-])c1sccc1C(Cc1ccc(OCCO)nc1)S(=O)(=O)Oc1ccc(N(CCCl)CCCl)cc1 (stereo not drawn) [TH-1315, 3-(4-(N,N-bis-(2-Chloroethyl)amino)phenoxysulfonyl-(2-(2-hydroxyethoxy)pyridin-5-yl-methyl))methyl-2-nitrothiophene]",,,,,142,99.5 µM,0.7 µM,>23,> 300 µM,13 µM,19 days,50 mg/kg,6 days,
"O=[N+]([O-])c1sccc1C(Cc1cccnc1)S(=O)(=O)Oc1ccc(N(CCCl)CCCl)cc1 (stereo not drawn) [TH-1331, 3-(4-(N,N-bis-(2-Chloroethyl)amino)phenoxysulfonyl-(pyridin-3-yl-methyl))methyl-2-nitrothiophene]",,,,,69,103 µM,1.5 µM,15,166 µM,11 µM,11 days and 10 days,60 mg/kg,,
"O=C(CO)Nc1ccc(CC(c2ccsc2[N+](=O)[O-])S(=O)(=O)Oc2ccc(N(CCCl)CCCl)cc2)cn1 (stereo not drawn) [TH-1354, 3-(4-(N,N-bis-(2-Chloroethyl)amino)phenoxysulfonyl-(2-(hydroxyacetylamino)pyridin-5-yl-methyl))methyl-2-nitrothiophene]",,,,,65,156 µM,2.4 µM,33,660 µM,20 µM,15 days and 12 days,40 mg/kg,,
Cn1cncc1CC(c1ccsc1[N+](=O)[O-])S(=O)(=O)Oc1ccc(N(CCCl)CCCl)cc1 (stereo not drawn) [TH-1365],,,,,33,23 µM,0.7 µM,25,270 µM,11 µM,10 days,10 mg/kg,,
CNc1ccc(CC(c2ccsc2[N+](=O)[O-])S(=O)(=O)Oc2ccc(N(CCCl)CCCl)cc2)cn1 (stereo not drawn) [TH-1442],,,,,116,93 µM,0.8 µM,66,230 µM,3.5 µM,,,,
"O=[N+]([O-])c1sccc1C(Cc1ccc2c(c1)nnn2CCO)S(=O)(=O)Oc1ccc(N(CCCl)CCCl)cc1 (stereo not drawn) [TH-1451, 3-(4-(N,N-bis-(2-Chloroethyl)amino)phenoxysulfonyl-(1-(2-hydroxyethyl)benzotriazol-5-yl-methyl))methyl-2-nitrothiophene]",,,,,110,110 µM,1 µM,42,250 µM,6 µM,,,,
"O=[N+]([O-])c1sccc1C(Cc1cn2ccccc2n1)S(=O)(=O)Oc1ccc(N(CCCl)CCCl)cc1 (stereo not drawn) [TH-1456, 3-(4-(N,N-bis-(2-Chloroethyl)amino)phenoxysulfonyl-(imidazopyridin-2-yl-methyl))methyl-2-nitrothiophene]",,,,,100,30 µM,0.3 µM,>60,> 300 µM,5 µM,,,,
"O=[N+]([O-])c1sccc1C(Cc1ccc2nnn(CCO)c2c1)S(=O)(=O)Oc1ccc(N(CCCl)CCCl)cc1 (stereo not drawn) [TH-1457, 3-(4-(N,N-bis-(2-Chloroethyl)amino)phenoxysulfonyl-(1-(2-hydroxyethyl)benzotriazol-6-yl-methyl))methyl-2-nitrothiophene]",,,,,240,120 µM,0.5 µM,45,180 µM,4 µM,,,,
"C[C@H](O)C(=O)Nc1ccc(CC(c2ccsc2[N+](=O)[O-])S(=O)(=O)Oc2ccc(N(CCCl)CCCl)cc2)cn1 (stereo partly drawn) [TH-1465, 3-(4-(N,N-bis-(2-Chloroethyl)amino)phenoxysulfonyl-(2-(lactic acylamino)pyridine-5-yl-methyl))methyl-2-nitrothiophene]",,,,,50,40 µM,0.8 µM,30,210 µM,7 µM,,,,
"COCC(=O)N(C)c1ccc(CC(c2ccsc2[N+](=O)[O-])S(=O)(=O)Oc2ccc(N(CCCl)CCCl)cc2)cn1 (stereo not drawn) [TH-1478, 3-(4-(N,N-bis-(2-Chloroethyl)amino)phenoxysulfonyl-(2-(N-methoxyacetyl-N-methylamino)pyridin-5-yl-methyl))methyl-2-nitrothiophene]",,,,,300,120 µM,0.4 µM,11,220 µM,20 µM,,,,
COCC(=O)Nc1ccc(CC(c2ccsc2[N+](=O)[O-])S(=O)(=O)Oc2ccc(N(CCCl)CCCl)cc2)cc1 (stereo not drawn) [TH-1479],,,,,325,260 µM,0.8 µM,2.7,> 300 µM,110 µM,,,,
O=[N+]([O-])c1sccc1C(Cc1ccc(O[C@H]2CCCC[C@@H]2O)nc1)S(=O)(=O)Oc1ccc(N(CCCl)CCCl)cc1 (stereo partly drawn) [TH-1487],,,,,64,51 µM,0.8 µM,1,240 µM,280 µM,,,,
O=[N+]([O-])c1sccc1C(COC1CCCCC1)S(=O)(=O)Oc1ccc(N(CCCl)CCCl)cc1 (stereo not drawn) [TH-1521],,,,,180,234 µM,1.3 µM,>3.2,> 300 µM,93 µM,,,,
CCN(CC)CC#CCC(c1ccsc1[N+](=O)[O-])S(=O)(=O)Oc1ccc(N(CCCl)CCCl)cc1 (stereo not drawn) [TH-1545],,,,,51,102 µM,2 µM,12,60 µM,5 µM,,,,
"COc1cccc2c1C(=O)c1c(O)c3c(c(O)c1C2=O)C[C@@](O)(C(=O)CO)C[C@@H]3O[C@H]1C[C@H](N)[C@H](O)[C@H](C)O1 [doxorubicin, reference compound]",,,,,,,,,,,,,,10 days
